Data: patent US20060165739A1, “Alcohol-free microemulsion composition” (Mary Kay Inc., priority 2005, published 2006)
Read-outs that look alike come from different tables or passages of the source.

What was measured:
Format in all cases: physicochemical
[1] = Fish diagram phase study: surfactant concentration (C) and sebum fraction in oil (F) where Type IV microemulsion forms; settings: co-oil with artificial sebum, WOR=1
Description: Methods: Phase behavior studies were performed using equal volume of water and oil (or sebum/co-oil mixtures), giving a water/oil ratio (WOR) equal to one. Preliminary studies were conducted to determine preferred formulations and salinity. […] In another non-limiting aspect, a preferred salinity (S*) for this composition was 0.5% NaCl. As noted throughout this document and contemplated by the inventors, these concentrations can be varied. Additionally, the ingredients can also vary. For example, the surfactants, hydrophobic and hydrophilic linkers, co-oils, and hydrotropes that are discussed throughout this document and known to those of ordinary skill in the art can be used with the present invention. Stock solutions of AOT, hexylglucocide, and sorbitan monooleate at the selected weight ratio were prepared at different total surfactant/linker concentrations ranging from 14.19% to 56.06% wt. The phase studies were carried out in 16×125 mm flat-bottomed tubes; 2.5 mL surfactant solution was added, followed by the addition of co-oil, then sebum oil. The total volume of co-oil and sebum oil required is equivalent to the amount of water present in the 2.5 mL surfactant solution; this is to keep WOR equal to one. The fraction of sebum oil in the oil mixtures is varied from zero (100% vol. co-oil) to one (100% vol. sebum oil). The prepared samples were gently shaken once a day for 3 days and left to equilibrate at room temperature for 2 weeks. Phase diagrams (fish diagrams) were constructed by plotting the total surfactant/linker concentration as a function of the sebum fraction in oil. The microemulsion phase (Type I, II, III, and IV) were obtained by visual observation. The effect of salinity (0.5%, 1.5%, and 3% wt. NaCl) and co-oil on the phase behavior was investigated. The fish tail is observed in the high concentration regime whereas the fish body appears in the low concentration regime. A surfactant concentration 14.19% wt was studied. As discussed throughout this document, however, the surfactant concentration can be varied. At lower surfactant concentrations, slow phase separation kinetics made it difficult to map out the three phase region. The surfactant concentration and the sebum fraction of oil at which the body and tail of the fish meet are denoted by “C” and “F”, respectively. The concentration C for this system, approximately, is 25% wt. surfactant concentration at the fraction F of 0.4, as summarized in Table 4.

[2] = Equivalent alkane carbon number (EACN) of co-oils
Source text: (§1) Formulating microemulsions requires the combination of variables that will provide a middle phase microemulsion. Salager et al. (1979) proposed a semi empirical equation that relates the different formulation variables: Ln(S*)=k(EACN)+f(A)−σ+αTΔT Where S* is an optimum salinity, or electrolyte concentration; k is a constant, normally, between 0.1 to 0.17, and EACN is the equivalent alkane carbon number for nonlinear hydrocarbon (e.g. triglycerides). Although preferred salinity concentrations may exist, the inventors contemplate that salinity levels can and will vary. For example, a person of ordinary skill in the art will recognize that salinity levels may vary depending on the desired effects of a given product, protocol, or individual characteristics of a user of the product. For linear hydrocarbon, alkane carbon number (ACN) is applied. The EACN is estimated based on the optimum salinity obtained in the inventors' formulation studies. The higher the optimum salinity, the more the hydrophobicity or EACN of the oil. The effect of alcohol or additives is noted by f(A), σ is a function of the type of the surfactant, α is a constant, and T is the temperature of the system. However, in this study, alcohol is not included and the temperature of the system is constant.
The EACN of squalene is 24 and isopropyl myristate (IPM) is 13. The EACN for squalane is expected to be close to the value for squalene (˜24).

[3] = Optimum salinity (S*) of co-oil/sebum oil mixtures in phase behavior studies with the AOT/sorbitan monooleate/hexylglucocide system; settings: NaCl
Description: Methods: Phase behavior studies were performed using equal volume of water and oil (or sebum/co-oil mixtures), giving a water/oil ratio (WOR) equal to one. Preliminary studies were conducted to determine preferred formulations and salinity. […] In another non-limiting aspect, a preferred salinity (S*) for this composition was 0.5% NaCl. As noted throughout this document and contemplated by the inventors, these concentrations can be varied. Additionally, the ingredients can also vary. For example, the surfactants, hydrophobic and hydrophilic linkers, co-oils, and hydrotropes that are discussed throughout this document and known to those of ordinary skill in the art can be used with the present invention.
Stock solutions of AOT, hexylglucocide, and sorbitan monooleate at the selected weight ratio were prepared at different total surfactant/linker concentrations ranging from 14.19% to 56.06% wt. The phase studies were carried out in 16×125 mm flat-bottomed tubes; 2.5 mL surfactant solution was added, followed by the addition of co-oil, then sebum oil. The total volume of co-oil and sebum oil required is equivalent to the amount of water present in the 2.5 mL surfactant solution; this is to keep WOR equal to one. The fraction of sebum oil in the oil mixtures is varied from zero (100% vol. co-oil) to one (100% vol. sebum oil). The prepared samples were gently shaken once a day for 3 days and left to equilibrate at room temperature for 2 weeks. Phase diagrams (fish diagrams) were constructed by plotting the total surfactant/linker concentration as a function of the sebum fraction in oil. The microemulsion phase (Type I, II, III, and IV) were obtained by visual observation. The effect of salinity (0.5%, 1.5%, and 3% wt. NaCl) and co-oil on the phase behavior was investigated.
as §1

[4] = oil mixture 20% co-oil / 80% sebum (vol.)
[5] = oil mixture 40% co-oil / 60% sebum
[6] = oil mixture 60% co-oil / 40% sebum
[7] = oil mixture 80% co-oil / 20% sebum

Concentration (C) of surfactant at which Type IV microemulsion forms ([1]; [NaCl] 0.50%) | sebum fraction in oil (F) at which Type IV microemulsion forms ([1]; [NaCl] 0.50%) | Concentration (C) of surfactant at which Type IV microemulsion forms ([1]; [NaCl] 1.50%) | sebum fraction in oil (F) at which Type IV microemulsion forms ([1]; [NaCl] 1.50%) | Concentration (C) of surfactant at which Type IV microemulsion forms ([1]; [NaCl] 3.00%) | sebum fraction in oil (F) at which Type IV microemulsion forms ([1]; [NaCl] 3.00%) | sebum fraction in oil (F) at which Type IV microemulsion forms ([1]; [NaCl] 0.50%, listed as squalene) | EACN [2] | EACN ([2]; listed as Ethyllaurate (EL)) | SMILES | S* (optimum salinity) ([3]; 100% co-oil / 0% sebum) | S* (optimum salinity) [3, 4] | S* (optimum salinity) [3, 5] | S* (optimum salinity) [3, 6] | S* (optimum salinity) [3, 7] | S* (optimum salinity) ([3]; oil mixture 20% co-oil / 80% sebum (vol.), listed as Isopropyl Myristate (IPM))
25 % wt. | 0.35 | 35 % wt. | 0.2 | 42 % wt. | 0.15 |  |  |  | CC(C)CCCC(C)CCCC(C)CCCCC(C)CCCC(C)CCCC(C)C (centres unmarked) [Squalane, 2,6,10,15,19,23-Hexamethyltetracosane] |  |  |  |  |  | 
~25 % wt. | 0.45 |  |  |  |  | 0.4 | 24 |  | CC(C)=CCC/C(C)=C/CC/C(C)=C/CC/C=C(\C)CC/C=C(\C)CCC=C(C)C [Squalene] |  |  |  |  |  | 
25 % wt. | 0.4 | 38 % wt. | 0.02 |  |  |  | < 13 | <13 | CCCCCCCCCCCC(=O)OCC [EL, ethyl laurate] | 1-1.5% | <0.5% | <0.5% | <0.5% | 0.5-0.7% | 
25 % wt. | 0.5 | 38 % wt. | 0.175 |  |  |  | 13 |  | CCCCCCCCCCCCCC(=O)OC(C)C [IPM, isopropyl myristate] | 3.5% | less than 0.5% | 0.5% | 0.8% | 1.5% | <0.5%
